Measurements published in patent US20250230193A1, “CYCLIC COMPOUND HAVING SELECTIVE KRAS INHIBITORY EFFECT ON HRAS AND NRAS” (CHUGAI SEIYAKU KABUSHIKI KAISHA, priority 2022, published 2025).

Assays:
[1] = target: GDP-bound NRAS wild-type protein (Homo sapiens, UniProt P01111); assay: Binding to NRAS by surface plasmon resonance (SPR), Single Cycle Kinetics; conditions: KD ratio NRAS/KRAS, class symbols
[2] = target: GDP-bound HRAS wild-type protein (Homo sapiens, UniProt P01112); assay: Binding to HRAS by surface plasmon resonance (SPR), Single Cycle Kinetics; conditions: KD ratio HRAS/KRAS, class symbols
Sequence of GDP-bound HRAS wild-type protein (P01112 whole entry): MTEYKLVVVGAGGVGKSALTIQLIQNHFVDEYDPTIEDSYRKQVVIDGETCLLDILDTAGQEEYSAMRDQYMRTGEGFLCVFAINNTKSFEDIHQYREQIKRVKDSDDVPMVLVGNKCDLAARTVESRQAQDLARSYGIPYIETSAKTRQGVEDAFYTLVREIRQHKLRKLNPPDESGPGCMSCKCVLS

Sequence of GDP-bound NRAS wild-type protein (P01111 whole entry): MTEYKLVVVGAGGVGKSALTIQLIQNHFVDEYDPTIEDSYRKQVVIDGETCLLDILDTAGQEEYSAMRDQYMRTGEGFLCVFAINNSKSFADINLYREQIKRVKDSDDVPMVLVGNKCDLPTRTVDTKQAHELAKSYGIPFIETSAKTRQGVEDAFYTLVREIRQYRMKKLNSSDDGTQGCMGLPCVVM

SMILES	NRAS/KRAS (ratio of KD value with respect to GDP-bound NRAS wild-type protein to KD value with respect to KRAS) [1]	HRAS/KRAS (ratio of KD value with respect to GDP-bound HRAS wild-type protein to KD value with respect to KRAS) [2]
CCC[C@H]1C(=O)N[C@@H]([C@@H](C)CC)C(=O)N(C)CC(=O)N(C)[C@H]2C/C=C\CCN(C2=O)[C@@H](Cc2ccc(C)cc2)C(=O)N(C)CC(=O)N[C@@H](CCc2ccc(Cl)c(C(F)(F)F)c2)C(=O)N2C[C@H](OCC)C[C@H]2C(=O)NC2(CC(C)(C)C2)C(=O)N(C)[C@@H](C(CC)CC)C(=O)N(C)[C@H](C(=O)N(C)C)CC(=O)N1C [PP2787]	AA (a compound having 20 or more is denoted as AA)	A (a compound having 10 or more and less than 20 is denoted as A)
CCC[C@H]1C(=O)N[C@@H]([C@@H](C)CC)C(=O)N(C)CC(=O)N(C)[C@H]2C/C=C\CCN(C2=O)[C@@H](Cc2ccc(C(F)(F)F)cc2)C(=O)N(C)CC(=O)N[C@@H](CCc2ccc(Cl)c(OC)c2)C(=O)N2C[C@H](OCC)C[C@H]2C(=O)NC2(CC(C)(C)C2)C(=O)N(C)[C@@H](C2CCCC2)C(=O)N(C)[C@H](C(=O)N(C)C)CC(=O)N1C [PP2788]	A (a compound having 10 or more and less than 20 is denoted as A)	A (a compound having 10 or more and less than 20 is denoted as A)
CCC[C@H]1C(=O)N[C@@H]([C@@H](C)CC)C(=O)N(C)CC(=O)N(C)[C@H]2C/C=C\CCN(C2=O)[C@@H](Cc2ccc(C(F)(F)F)cc2)C(=O)N(C)CC(=O)N[C@@H](CCc2ccc(Cl)c(OC)c2)C(=O)N2C[C@H](OCC)C[C@H]2C(=O)NC2(CC(C)(C)C2)C(=O)N(C)[C@@H](C(CC)CC)C(=O)N(C)[C@H](C(=O)N(C)C)CC(=O)N1C [PP2789]	AA (a compound having 20 or more is denoted as AA)	A (a compound having 10 or more and less than 20 is denoted as A)
CCC[C@H]1C(=O)N[C@@H]([C@@H](C)CC)C(=O)N(C)CC(=O)N(C)[C@H]2C/C=C\CCN(C2=O)[C@@H](Cc2ccc(C)cc2)C(=O)N(C)CC(=O)N[C@@H](CCc2ccc(Cl)c(OC)c2)C(=O)N2C[C@H](OCC)C[C@H]2C(=O)NC2(CC(C)(C)C2)C(=O)N(C)[C@@H](C2CCCC2)C(=O)N(C)[C@H](C(=O)N(C)C)CC(=O)N1C [PP2790]	A (a compound having 10 or more and less than 20 is denoted as A)	A (a compound having 10 or more and less than 20 is denoted as A)
CCCC[C@H]1C(=O)N[C@@H]([C@@H](C)CC)C(=O)N(C)CC(=O)N(C)[C@H]2C/C=C\CCN(C2=O)[C@@H](Cc2ccc(C)cc2)C(=O)N(C)CC(=O)N[C@@H](CCc2cc(F)c(C(F)(F)F)c(F)c2)C(=O)N2C[C@H](OCC)C[C@H]2C(=O)NC2(CCC2)C(=O)N(C)[C@@H](C2CCCC2)C(=O)N(C)[C@H](C(=O)N(C)CC)CC(=O)N1C [PP2796]	A (a compound having 10 or more and less than 20 is denoted as A)	A (a compound having 10 or more and less than 20 is denoted as A)
CCC[C@H]1C(=O)N[C@@H]([C@@H](C)CC)C(=O)N(C)CC(=O)N(C)[C@H]2C/C=C\CCN(C2=O)[C@@H](Cc2ccc(C)cc2)C(=O)N(C)CC(=O)N[C@@H](CCc2cc(F)c(C(F)(F)F)c(F)c2)C(=O)N2C[C@H](OCC)C[C@H]2C(=O)NC2(CC(C)(C)C2)C(=O)N(C)[C@@H](CC2CC2)C(=O)N(C)[C@H](C(=O)N(C)C)CC(=O)N1C [PP2797]	A (a compound having 10 or more and less than 20 is denoted as A)	A (a compound having 10 or more and less than 20 is denoted as A)
CCCC[C@H]1C(=O)N[C@@H]([C@@H](C)CC)C(=O)N(C)CC(=O)N(C)[C@H]2C/C=C\CCN(C2=O)[C@@H](Cc2ccc(C)cc2)C(=O)N(C)CC(=O)N[C@@H](CCc2cc(F)c(C(F)(F)F)c(F)c2)C(=O)N2C[C@H](OCC)C[C@H]2C(=O)NC2(CCC2)C(=O)N(C)[C@@H](C2CCCC2)C(=O)N(C)[C@H](C(=O)N(C)C)CC(=O)N1C [PP2798]	A (a compound having 10 or more and less than 20 is denoted as A)	A (a compound having 10 or more and less than 20 is denoted as A)
CCC[C@H]1C(=O)N[C@@H]([C@@H](C)CC)C(=O)N(C)CC(=O)N(C)[C@H]2C/C=C\CCN(C2=O)[C@@H](Cc2ccc(C)cc2)C(=O)N(C)CC(=O)N[C@@H](CCc2ccc(Cl)c(Cl)c2)C(=O)N2C[C@H](OCC)C[C@H]2C(=O)NC2(CC(C)(C)C2)C(=O)N(C)[C@@H](CC2CC2)C(=O)N(C)[C@H](C(=O)N(C)C)CC(=O)N1C [PP2799]	A (a compound having 10 or more and less than 20 is denoted as A)	A (a compound having 10 or more and less than 20 is denoted as A)
CCCC[C@H]1C(=O)N[C@@H]([C@@H](C)CC)C(=O)N(C)CC(=O)N(C)[C@H]2C/C=C\CCN(C2=O)[C@@H](Cc2ccc(C)cc2)C(=O)N(C)CC(=O)N[C@@H](CCc2cc(F)c(C(F)(F)F)c(F)c2)C(=O)N2C[C@H](OCC)C[C@H]2C(=O)NC2(CC(C)(C)C2)C(=O)N(C)[C@@H](C2CCCC2)C(=O)N(C)[C@H](C(=O)N(C)C)CC(=O)N1C [PP2800]	A (a compound having 10 or more and less than 20 is denoted as A)	A (a compound having 10 or more and less than 20 is denoted as A)
CC[C@H](C)[C@@H]1NC(=O)[C@H](CC2CC2)N(C)C(=O)C[C@@H](C(=O)N(C)CC)N(C)C(=O)[C@H](C2CCCC2)N(C)C(=O)C2(CC(C)(C)C2)NC(=O)[C@@H]2C[C@@H](F)CN2C(=O)[C@H](CCc2cc(F)c(C(F)(F)F)c(F)c2)NC(=O)CN(C)C(=O)[C@H](Cc2ccc(C)cc2)N2CC/C=C\C[C@@H](C2=O)N(C)C(=O)CN(C)C1=O [PP2802]	AA (a compound having 20 or more is denoted as AA)	A (a compound having 10 or more and less than 20 is denoted as A)
CCC[C@H]1C(=O)N[C@@H]([C@@H](C)CC)C(=O)N(C2CC2)CC(=O)N(C)[C@H]2C/C=C\CCN(C2=O)[C@@H](Cc2ccc(C)cc2)C(=O)N(C)CC(=O)N[C@@H](CCc2ccc(C(F)(F)F)c(OC)c2)C(=O)N2C[C@H](OCC)C[C@H]2C(=O)NC2(CC(C)(C)C2)C(=O)N(C)[C@@H](CC2CC2)C(=O)N(C)[C@H](C(=O)N(C)C)CC(=O)N1C [PP2803]	A (a compound having 10 or more and less than 20 is denoted as A)	A (a compound having 10 or more and less than 20 is denoted as A)
CC[C@H](C)[C@@H]1NC(=O)[C@H](CC2CC2)N(C)C(=O)C[C@@H](C(=O)N(C)C)N(C)C(=O)[C@H](C2CCCC2)N(C)C(=O)C2(CC(C)(C)C2)NC(=O)[C@@H]2C[C@@H](F)CN2C(=O)[C@H](CCc2cc(F)c(C(F)(F)F)c(F)c2)NC(=O)CN(C)C(=O)[C@H](Cc2ccc(C)cc2)N2CC/C=C\C[C@@H](C2=O)N(C)C(=O)CN(C)C1=O [PP2804]	A (a compound having 10 or more and less than 20 is denoted as A)	A (a compound having 10 or more and less than 20 is denoted as A)
CCC[C@H]1C(=O)N[C@@H]([C@@H](C)CC)C(=O)N(C2CC2)CC(=O)N(C)[C@H]2C/C=C\CCN(C2=O)[C@@H](Cc2ccc(C)cc2)C(=O)N(C)CC(=O)N[C@@H](CCc2ccc(Cl)c(Cl)c2)C(=O)N2C[C@H](OCC)C[C@H]2C(=O)NC2(CC(C)(C)C2)C(=O)N(C)[C@@H](CC2CC2)C(=O)N(C)[C@H](C(=O)N(C)C)CC(=O)N1C [PP2805]	A (a compound having 10 or more and less than 20 is denoted as A)	A (a compound having 10 or more and less than 20 is denoted as A)
CCCC[C@H]1C(=O)N[C@@H]([C@@H](C)CC)C(=O)N(C)CC(=O)N(C)[C@H]2C/C=C\CCN(C2=O)[C@@H](Cc2ccc(C(F)(F)F)cc2)C(=O)N(C)CC(=O)N[C@@H](CCc2cc(F)c(C(F)(F)F)c(F)c2)C(=O)N2C[C@H](OCC)C[C@H]2C(=O)NC2(CC(C)(C)C2)C(=O)N(C)[C@@H](C2CCCC2)C(=O)N(C)[C@H](C(=O)N(C)CC)CC(=O)N1C [PP2806]	A (a compound having 10 or more and less than 20 is denoted as A)	A (a compound having 10 or more and less than 20 is denoted as A)
CCC[C@H]1C(=O)N[C@@H]([C@@H](C)CC)C(=O)N(C)CC(=O)N(C)[C@H]2C/C=C\CCN(C2=O)[C@@H](Cc2ccc(C(F)(F)F)cc2)C(=O)N(C)CC(=O)N[C@@H](CCc2cc(F)c(C(F)(F)F)c(F)c2)C(=O)N2C[C@H](OCC)C[C@H]2C(=O)NC2(CC(C)(C)C2)C(=O)N(C)[C@@H](CC2CC2)C(=O)N(C)[C@H](C(=O)N(C)C)CC(=O)N1C [PP2807]	AA (a compound having 20 or more is denoted as AA)	A (a compound having 10 or more and less than 20 is denoted as A)
